Reference: patent US20130337564A1, “Treatment of Pluripotent Cells” (Janssen Biotech, Inc., priority 2012, published 2013)

How the values were obtained:
Format in all cases: cell-based
[1] = system: Sox17 expression in human embryonic stem cell line H1; experiment: Dose titration secondary assay: Sox17 intensity, H1
Protocol: (§1) It was important to confirm the activity of hits identified from primary screening and further analyze the range of activity by dose titration. New samples of a selective subset of primary screening hits were obtained as dry powders, solubilized to make fresh stock reagents, and diluted into secondary confirmation assays to evaluate effects on human embryonic stem cells.
(§2) Culture of two human embryonic stem cells (H1 and H9) was conducted as described in Example 1. Colonies of cells were maintained in an undifferentiated, pluripotent state on Matrigel™ ([…]) coated polystyrene plastic, using a 1:30 dilution of Matrigel™ in DMEM:F12 to coat the surface. Cells were split by enzymatic passage every four days on average. Passage was performed by exposing cell monolayers to a solution of collagenase (1 mg/ml; Sigma-Aldrich) for 10 to 60 minutes at 37° C. followed by gentle scraping with a pipette tip to recover cell clusters. Clusters were allowed to sediment by gravity, then washed to remove residual collagenase. Cell clusters were split at a 1:3 ratio for maintenance culture or a 1:1 ratio for subsequent assay. The human embryonic stem cell lines were maintained at less than passage 50 and routinely evaluated for normal karyotypic phenotype and absence of mycoplasma contamination.
(§3) Cell clusters of the H1 or H9 human embryonic stem cell lines used in the assay were evenly resuspended in culture medium and plated onto Matrigel™-coated 96-well Packard VIEWPLATES (PerkinElmer) in volumes of 100 μl/well. MEF conditioned medium supplemented with 8 ng/ml bFGF was used for initial plating and expansion. Daily feeding was conducted by aspirating spent culture medium from each well and replacing with an equal volume of fresh medium. Cultures were allowed to expand one to three days after plating prior to initiating assay. Plates were maintained at 37° C., 5% CO2 in a humidified box for the duration of assay.
(§4) A subset of hits resulting from primary screening was used for follow-up study and subsequent secondary assays. Twenty compounds available as dry powders were solubilized as 10 mM stocks in DMSO and stored dessicated at […] until use Immediately prior to assay, compound stocks were diluted 1:1000 to make 10 μM test compound in DMEM:F12 base medium (Invitrogen) supplemented with 0.5% FCS (HyClone) and 100 ng/ml Activin A (R&D Biosystems). This was further diluted two-fold in series to make a seven point dilution curve for each compound, also in DMEM:F12 base medium with 0.5% FCS and 100 ng/ml Activin A.
(§5) Assay was initiated by aspirating culture medium from cell monolayers in each well followed by three washes in PBS to remove residual growth factors and serum. Test volumes of 100 μl per well were added back containing medium with 0.5% FCS and different concentrations of inhibitor compounds with 100 ng/ml Activin A, without Wnt3a. Positive control wells contained the same base medium with 0.5% FCS and with 20 ng/ml Wnt3a (R&D Biosystems) in the absence of test compound. Negative control wells contained the same base medium with 0.5% FCS, in the absence of Activin A, Wnt3a, or test compound. Assay wells were aspirated and fed again with identical concentrations of test compound or control solutions on day 2 of assay. On days 3 and 4, all assay wells were aspirated and fed with DMEM:F12 supplemented with 2% FCS and 100 ng/ml Activin A in the absence of both test compound or Wnt3a. Parallel negative control wells were maintained on days 3 and 4 in DMEM:F12 base medium with 2% FCS.
(§6) At the end of culture, cells in 96-well plates were washed twice with PBS then fixed with 4% paraformaldehyde at room temperature for 20 minutes, washed three times more with PBS, and then permeabilized with 0.5% Triton X-100 for 20 minutes at room temperature. After fixing and permeabilizing, cells were washed again three times with PBS and then blocked with 4% chicken serum (Invitrogen) in PBS for 30 minutes at room temperature. […]

[2] = system: human embryonic stem cell line H9; experiment: Dose titration secondary assay: cell number, H9
Protocol: as §1, §2, §3, §4, §5, §6

[3] = system: Sox17 expression in human embryonic stem cell line H9; experiment: Dose titration secondary assay: Sox17 intensity, H9
Protocol: as §1, §2, §3, §4, §5, §6

SMILES | Sox17 Intensity ([1]; 0.156 μM compound) | Sox17 Intensity ([1]; 0.313 μM compound) | Sox17 Intensity ([1]; 0.625 μM compound) | Sox17 Intensity ([1]; 1.25 μM compound) | Sox17 Intensity ([1]; 2.5 μM compound) | Sox17 Intensity ([1]; 5 μM compound) | Sox17 Intensity ([1]; 10 μM compound) | Cell number ([2]; 0.156 μM compound) | Cell number ([2]; 0.313 μM compound) | Cell number ([2]; 0.625 μM compound) | Cell number ([2]; 1.25 μM compound) | Cell number ([2]; 2.5 μM compound) | Cell number ([2]; 5 μM compound) | Cell number ([2]; 10 μM compound) | Sox17 Intensity ([3]; 0.156 μM compound) | Sox17 Intensity ([3]; 0.313 μM compound) | Sox17 Intensity ([3]; 0.625 μM compound) | Sox17 Intensity ([3]; 1.25 μM compound) | Sox17 Intensity ([3]; 2.5 μM compound) | Sox17 Intensity ([3]; 5 μM compound) | further results
CCN1CCOCCOCCn2cc(c3ccccc32)C2=C(C(=O)NC2=O)c2cn(c3ccccc23)CC1 [Compound 103, 14-Ethyl-6,7,9,10,13,14,15,16-octahydro-12H,23H-5,26:17,22-di(metheno)dibenzo[k,q]pyrrolo[3,4-n][1,4,7,10,19]dioxatriacyclohenicosine-23,25(24H)-dione] | 0.986 | 0.934 | 0.824 | 0.792 | 0.200 | 0.017 | 0.001 | 0.458 | 0.686 | 0.927 | 1.011 | 0.681 | 0.023 | 0.001 | 0.364 | 0.577 | 0.985 | 0.943 | 0.559 | 0.019 | Sox17 Intensity ([3]; 10 μM compound): 0.001
CN1CCN(C)CCn2cc(c3ccccc32)C2=C(C(=O)NC2=O)c2cn(c3ccccc23)CC1 [Compound 111, 8,11-Dimethyl-6,7,8,9,10,11,12,13-octahydro-20H-5,23:14,19-di(metheno)dibenzo[k,q]pyrrolo[3,4-n][1,4,7,10]tetraazacyclooctadecine-20,22(21H)-dione] | 0.628 | 0.667 | 0.755 | 0.819 | 0.887 | 0.846 | 0.330 | 0.072 | 0.100 | 0.371 | 0.442 | 0.600 | 0.793 | 1.117 | 0.054 | 0.080 | 0.268 | 0.332 | 0.432 | 0.543 | Sox17 Intensity ([3]; 10 μM compound): 0.822
CN1CCOCCOCCN(C)CCn2cc(c3ccccc32)C2=C(C(=O)NC2=O)c2cn(c3ccccc23)CC1 [Compound 112, 12,21-Dimethyl-11,12,13,14,16,17,20,21,22,23-decahydro-1H,10H,19H-9,4:24,29-di(metheno)dibenzo[k,q]pyrrolo[3,4-n][1,4,7,10,19,22]dioxatetraazacyclotetracosine-1,3(2H)-dione] | 0.922 | 1.006 | 1.136 | 1.159 | 0.928 | 0.728 | 0.701 | 0.276 | 0.437 | 0.686 | 1.039 | 1.197 | 1.281 | 1.022 | 0.186 | 0.342 | 0.563 | 0.936 | 1.146 | 1.127 | Sox17 Intensity ([3]; 10 μM compound): 0.759
O=C1NC(=O)C2=C1c1cn(c3ccccc13)CCOCCOCCN(Cc1cccs1)CCn1cc2c2ccccc21 [Compound 133, 14-(2-Thienylmethyl)-6,7,9,10,13,14,15,16-octahydro-12H,23H-5,26:17,22-di(metheno)dibenzo[k,q]pyrrolo[3,4-n][1,4,7,10,19]dioxatriazacyclohenicosine-23,25(24H)-dione] | 0.888 | 0.937 | 1.061 | 0.993 | 0.497 | 0.071 | 0.034 | 0.206 | 0.540 | 0.899 | 1.477 | 1.368 | 1.067 | 0.785 | 0.149 | 0.398 | 0.678 | 1.110 | 0.857 | 0.194 | Sox17 Intensity ([3]; 10 μM compound): 0.129
O=C1NC(=O)C2=C1c1cn(c3ccccc13)CCOCCOCCN(Cc1cccc3ccccc13)CCn1cc2c2ccccc21 [Compound 136, 14-(Naphthalen-1-ylmethyl)-6,7,9,10,13,14,15,16-octahydro-12H,23H-5,26:17,22-di(metheno)dibenzo[k,q]pyrrolo[3,4-n][1,4,7,10,19]dioxatriazacyclohenicosine-23,25(24H)-dione] | 0.666 | 0.859 | 0.887 | 0.783 | 0.373 | 0.141 | 0.054 | 0.147 | 0.192 | 0.267 | 0.334 | 0.388 | 0.320 | 0.208 | 0.125 | 0.129 | 0.212 | 0.202 | 0.209 | 0.154 | Sox17 Intensity ([3]; 10 μM compound): 0.129
